Source: patent US9751869B2, “LXR modulators” (BRISTOL-MYERS SQUIBB COMPANY, priority 2013, dated 2017)

Target: T1, LXRβ (Homo sapiens, UniProt P55055)
T1 construct: Co-transfection expression plasmids, comprising full-length LXRα (pCMX-h LXRα or LXRβ (pCMX-hLXRβ)); expressed in transfected cells; host or cells: CV-1 African green monkey kidney cells, transient transfection with pCMX-hLXRβ
T1 sequence (P55055 1-460): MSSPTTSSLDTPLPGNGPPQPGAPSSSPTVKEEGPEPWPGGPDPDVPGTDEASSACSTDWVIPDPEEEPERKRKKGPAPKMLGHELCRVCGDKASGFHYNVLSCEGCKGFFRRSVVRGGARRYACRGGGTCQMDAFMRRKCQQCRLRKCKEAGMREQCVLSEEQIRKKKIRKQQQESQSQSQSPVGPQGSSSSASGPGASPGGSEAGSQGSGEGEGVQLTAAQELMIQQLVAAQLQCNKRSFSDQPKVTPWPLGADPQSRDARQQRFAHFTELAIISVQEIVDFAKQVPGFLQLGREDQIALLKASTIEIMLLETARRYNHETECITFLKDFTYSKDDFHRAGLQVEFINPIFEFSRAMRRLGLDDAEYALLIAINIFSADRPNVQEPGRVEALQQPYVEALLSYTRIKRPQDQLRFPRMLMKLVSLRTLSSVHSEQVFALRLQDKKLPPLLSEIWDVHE
T1 sequence (P19793 1-462 partner): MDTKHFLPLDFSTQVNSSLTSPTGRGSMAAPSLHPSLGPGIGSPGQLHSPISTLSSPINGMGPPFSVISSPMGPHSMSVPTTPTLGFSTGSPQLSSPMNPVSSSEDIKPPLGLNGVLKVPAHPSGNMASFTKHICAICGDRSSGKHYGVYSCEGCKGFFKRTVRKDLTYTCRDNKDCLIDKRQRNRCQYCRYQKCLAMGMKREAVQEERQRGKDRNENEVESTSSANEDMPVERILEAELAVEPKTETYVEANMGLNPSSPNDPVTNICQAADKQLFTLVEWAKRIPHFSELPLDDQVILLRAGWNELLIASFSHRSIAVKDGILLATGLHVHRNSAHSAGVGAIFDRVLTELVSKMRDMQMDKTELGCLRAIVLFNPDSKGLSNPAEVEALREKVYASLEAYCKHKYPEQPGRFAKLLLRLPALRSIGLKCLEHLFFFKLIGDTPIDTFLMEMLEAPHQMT
Assay: LXR/LXRE co-transfection assay (luciferase reporter) in CV-1 cells, LXRβ
Format: cell-based
Conditions: for EC50: CV-1 cells transfected with pCMX-hLXRβ and LXREx1-Tk-Luciferase, 20 hours incubation, read-out: LXRbeta agonism EC50; for Emax: CV-1 cells, relative to maximum response of high control N-(3-((4-fluorophenyl)-(naphthalene-2-sulfonyl)amino)propyl)-2,2-dimethylpropionamide, read-out: LXRbeta % EFFICACY
How it was run: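 CV-1 cells transiently co-transfected with full-length human LXRβ, LXRE-Tk-luciferase reporter and β-galactosidase control, then exposed to compound (≤0.5% DMSO) for 20 h at 37 °C before luminescence read. EC50 from 10-point, half-log dose curves; efficacy relative to the sulfonamide high control, means of 2–3 experiments.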

What does the source list for `Cc1nc(-c2ccc(OC(F)F)c(F)c2)c(-c2cc(-c3cccc(S(C)(=O)=O)c3)ccc2-c2cc(C(F)(F)CO)nn2C)o1` [Example 76, 2-(5-(3-(4-(4-(difluoromethoxy)-3-fluorophenyl)-2-methyloxazol-5-yl)-3′-(methylsulfonyl)biphenyl-4-yl)-1-methyl-1H-pyrazol-3-yl)-2,2-difluoroethanol]?
EC50: 84 nM; Emax: 88%

With `Cc1nc(-c2ccc(OC(F)F)c(F)c2)c(-c2cc(-c3cc(F)c(CO)c(S(C)(=O)=O)c3)ccc2-c2cc(C(F)(F)CO)nn2C)o1` [Example 77, 2-(5-(3-(4-(4-(difluoromethoxy)-3-fluorophenyl)-2-methyloxazol-5-yl)-3′-fluoro-4′-(hydroxymethyl)-5′-(methylsulfonyl)biphenyl-4-yl)-1-methyl-1H-pyrazol-3-yl)-2,2-difluoroethanol] as the molecule, how does the EC50 read?
Its EC50 is 30 nM.

And the Emax?
The Emax was 86%.

How did the EC50 turn out when `CNC(=O)C(F)(F)c1cc(-c2ccc(-c3cc(F)c(CO)c(S(C)(=O)=O)c3)cc2-c2oc(C)nc2-c2ccc(OC(F)F)c(F)c2)n(C)n1` [Example 78, 2-(5-(3-(4-(4-(difluoromethoxy)-3-fluorophenyl)-2-methyloxazol-5-yl)-3′-fluoro-4′-(hydroxymethyl)-5′-(methylsulfonyl)biphenyl-4-yl)-1-methyl-1H-pyrazol-3-yl)-2,2-difluoro-N-methylacetamide] was run?
The EC50 was 72 nM.

And the Emax?
Its Emax is 79%.

Which results are given for `Cc1nc(-c2ccc(OC(F)F)c(F)c2)c(-c2cc(-c3cc(F)c(CO)c(S(C)(=O)=O)c3)ccc2-c2cc(C(F)(F)C(=O)N(C)C)nn2C)o1` [Example 79, 2-(5-(3-(4-(4-(difluoromethoxy)-3-fluorophenyl)-2-methyloxazol-5-yl)-3′-fluoro-4′-(hydroxymethyl)-5′-(methylsulfonyl)biphenyl-4-yl)-1-methyl-1H-pyrazol-3-yl)-2,2-difluoro-N,N-dimethylacetamide]?
EC50: 17 nM; Emax: 87%

For `Cc1nc(-c2ccc3c(c2)OC(F)(F)O3)c(-c2cc(-c3cc(F)c(CO)c(S(C)(=O)=O)c3)ccc2-c2cc(C(F)(F)C(=O)N(C)C)nn2C)o1` [Example 80, 2-(5-(3-(4-(2,2-difluorobenzo[d][1,3]dioxol-5-yl)-2-methyloxazol-5-yl)-3′-fluoro-4′-(hydroxymethyl)-5′-(methylsulfonyl)biphenyl-4-yl)-1-methyl-1H-pyrazol-3-yl)-2,2-difluoro-N,N-dimethylacetamide], which EC50 is on record?
The EC50 was 131 nM.

And the Emax?
The Emax was 58%.

Which results are given for `Cc1nc(-c2ccc3c(c2)OC(F)(F)O3)c(-c2cc(-c3cc(F)c(CO)c(S(C)(=O)=O)c3)ccc2-c2cc(C(F)(F)C(=O)N3CCOCC3)nn2C)o1` [Example 81, 2-(5-(3-(4-(2,2-difluorobenzo[d][1,3]dioxol-5-yl)-2-methyloxazol-5-yl)-3′-fluoro-4′-(hydroxymethyl)-5′-(methylsulfonyl)biphenyl-4-yl)-1-methyl-1H-pyrazol-3-yl)-2,2-difluoro-1-morpholinoethanone]?
EC50: 184 nM; Emax: 43%

Which results are given for `Cc1nc(-c2ccc3c(c2)OC(F)(F)O3)c(-c2cc(-c3cc(F)c(CO)c(S(C)(=O)=O)c3)ccc2-c2cc(C(F)(F)C(=O)NC(C)C)nn2C)o1` [Example 82, 2-(5-(3-(4-(2,2-difluorobenzo[d][1,3]dioxol-5-yl)-2-methyloxazol-5-yl)-3′-fluoro-4′-(hydroxymethyl)-5′-(methylsulfonyl)biphenyl-4-yl)-1-methyl-1H-pyrazol-3-yl)-2,2-difluoro-N-isopropylacetamide]?
EC50: 59 nM; Emax: 33%

How did the EC50 turn out when `Cc1nc(-c2ccc3c(c2)OC(F)(F)O3)c(-c2cc(-c3cc(F)c(CO)c(S(C)(=O)=O)c3)ccc2-c2cc(C(F)(F)C(=O)N3CCCC3)nn2C)o1` [Example 83, 2-(5-(3-(4-(2,2-difluorobenzo[d][1,3]dioxol-5-yl)-2-methyloxazol-5-yl)-3′-fluoro-4′-(hydroxymethyl)-5′-(methylsulfonyl)-[1,1′-biphenyl]-4-yl)-1-methyl-1H-pyrazol-3-yl)-2,2-difluoro-1-(pyrrolidin-1-yl)ethanone] was run?
The EC50 was 497 nM.

What about the Emax of the same molecule?
The Emax was 62%.
